Tested on: spontaneous hypertensive rats
Details: oral dose of 100 mg/kg, dissolved in water, male spontaneous hypertensive rats
Description: (B) Effect on spontaneous hypertensive rats
14 to 17-week-old male spontaneous hypertensive rats with mean arterial blood pressure of about 150 mmHg, weighing 270-326 g, were used. The animals were cannulated in the left femoral artery and the mean blood pressure and heart rate were measured with a pressure-transducer. The drugs were given orally. The animals were deprived of food for about 18 hours before oral dosing. The test drugs were dissolved in water, and given in oral dose of 100 mg/kg.

## CCCCc1nc2cccnc2n1Cc1ccc(-c2ccccc2-c2nnn[n-]2)cc1.[Na+] [compound ①, Sodium salt of 2-butyl-3-[[2′-(1H-tetrazol-5-yl)biphenyl-4-yl]methyl]-3H-imidazo[4,5-b]pyridine]
  Effect Max (mean ratio of maximum decrease of blood pressure): 17.6%
